Common to all, as to assay: NCI-60 cell line screen, 48 h
For assay [1], the system named is UO-31.
The test system of assay [2] is NCI-H23.
The subject of assay [3] is SF-268.
Assay [4] relates to Malme-3M.
Assay [5] relates to PC-3.
Assay [6] concerns SK-MEL-5.
Assay [7] deals with SK-OV-3.
Assay [8] deals with HOP-92.
Assay [9] relates to A549.
Assay [10] deals with HCT-116.
Assay [11] has as its system HT-29.
Assay [12] has as its system NCI-H226.
Assay [13] has as its system LOX IMVI.
Assay [14] relates to RXF 393.
The test system of assay [15] is K562.
The test system of assay [16] is 786-0.
The test system of assay [17] is OVCAR-3.
Assay [18] deals with OVCAR-5.
In assay [19] the test system is OVCAR-4.
Assay [20] relates to SK-MEL-2.

Data on eight compounds can be found in ChEMBL document CHEMBL1201862, “PubChem BioAssay data set” (2004).

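1) Cells in 96-well plates. 2) Compound, 48 h, 5 concentrations. 3) Linear interpolation between surrounding doses. 4) Unreached endpoint = highest concentration. Abbreviation: GI50, concentration required for 50% inhibition of growth.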 The source made the active and inactive calls. Rule as the data show it: active = GI50 up to about 1.1 µM and inactive = higher. Some results are limits rather than exact numbers.

Take `CCCNC(=O)OCc1c(COC(=O)NCCC)c(-c2ccc(Cl)c(Cl)c2)n2c1CCC2`: the GI50 was 2.86 µM (inactive) in assay [1]; 5.93 µM (inactive) in assay [2]; 4.33 µM (inactive) in [3]; 2.94 µM (inactive) in [4]; 8.59 µM (inactive) in assay [5]; 5.98 µM (inactive) in assay [6]. The GI50 in assay [7] was 2.81 µM (inactive); in assay [8], 2.52 µM (inactive); in [9] it was 6.61 µM (inactive); in assay [10] it was 5.09 µM (inactive); in [11], 4.12 µM (inactive); in assay [12], 1.58 µM (inactive). Besides, the GI50 in assay [13] was 3.78 µM (inactive); in assay [14] it was 2.35 µM (inactive); in assay [15] it was 4.31 µM (inactive); in [16], 2.82 µM (inactive); in assay [17] it was 14 µM (inactive); in [18] it was 3.76 µM (inactive).
For the compound `CCOC(=O)c1c(-c2ccc(OC)cc2)c(C#N)c(=S)n(C2OC(COC(C)=O)C(OC(C)=O)C(OC(C)=O)C2OC(C)=O)c1C` (stereo not given), the GI50 in [1] was 1.46 µM (inactive); in assay [2] it was > 100 µM (inactive); in assay [3], > 100 µM (inactive); in assay [4], > 100 µM (inactive); in [5], 30.8 µM (inactive); in [6] it was > 100 µM (inactive). In addition, the GI50 in assay [7] was > 100 µM (inactive); in [8], 4.32 µM (inactive); in [9], > 100 µM (inactive); in assay [10], > 100 µM (inactive); in assay [11], > 100 µM (inactive); in assay [12] it was > 100 µM (inactive). For the same compound, the GI50 in [13] was > 100 µM (inactive); in assay [14], > 100 µM (inactive); in [15], 38.4 µM (inactive); in assay [16], > 100 µM (inactive); in assay [17], 31.5 µM (inactive); in assay [18], > 100 µM (inactive). Moreover, in [19], the GI50 was 20.9 µM (inactive).
For the compound `Cc1cc(C)n(-c2nc3ccccc3c(=O)n2-c2ccccc2)n1`, the GI50 in [20] was 67 µM (inactive); in assay [1], 0.621 µM (active); in [2], > 100 µM (inactive); in [3] it was > 100 µM (inactive); in assay [4], > 100 µM (inactive); in [5] it was > 100 µM (inactive). Besides, the GI50 in assay [6], in assay [7], in assay [9], in assay [10], in assay [11] and in assay [12] was > 100 µM (inactive) each time. Further, the GI50 in [13], in [14], in assay [15], in assay [16], in [17] and in [18] was > 100 µM (inactive) each time. Besides, in assay [19], the GI50 is > 100 µM (inactive).
As for `CCCCCCCCCCCCCCCCCc1nc(Cl)nc(Cl)c1Cl`, the GI50 is > 100 µM (inactive) in [1]; > 100 µM (inactive) in [2]; > 100 µM (inactive) in assay [3]; > 100 µM (inactive) in [4]; 38.1 µM (inactive) in [5]; 17.3 µM (inactive) in [6]. The GI50 in assay [7] was > 100 µM (inactive); in assay [8] it was > 100 µM (inactive); in [9] it was > 100 µM (inactive); in assay [10] it was > 100 µM (inactive); in assay [11], > 100 µM (inactive); in assay [12] it was 15.6 µM (inactive). The GI50 in [13], in [14], in assay [15], in assay [16], in [17] and in [18] was > 100 µM (inactive) in each case. For the same compound, the GI50 in assay [19] is > 100 µM (inactive).
On to `CC(C)(C)OC(=O)CC(NC(=O)OC(C)(C)C)C(=O)NC(C(=O)O)C(O)c1ccccc1` (stereo not given), for which the GI50 in assay [20] is > 100 µM (inactive); in assay [1] it was > 100 µM (inactive); in assay [2], > 100 µM (inactive); in [3] it was 50.2 µM (inactive); in assay [4], 90.4 µM (inactive); in assay [5], 91.4 µM (inactive). Moreover, the GI50 in assay [6] was 56 µM (inactive); in [7], 41.7 µM (inactive); in assay [9], > 100 µM (inactive); in [10], 79.1 µM (inactive); in assay [11], 75.3 µM (inactive); in [12] it was 13.9 µM (inactive). Also, the GI50 was > 100 µM (inactive) in assay [13]; 57.9 µM (inactive) in assay [14]; 46.9 µM (inactive) in [15]; > 100 µM (inactive) in assay [16]; > 100 µM (inactive) in assay [17]; > 100 µM (inactive) in [18]. In addition, the GI50 in [19] is > 100 µM (inactive).
For `COc1ccc(C2=C(OC(C)=O)c3cccn3-c3ccccc3S2)cc1`, the GI50 in assay [2] is 1.89 µM (inactive); in [3], > 10 µM (inactive); in assay [4] it was 2.7 µM (inactive); in [5] it was 2.3 µM (inactive); in [6], 3.37 µM (inactive); in assay [7], 2.65 µM (inactive). The GI50 in assay [8] is 1.58 µM (inactive); in assay [9], 7.53 µM (inactive); in assay [11], 2.19 µM (inactive); in [13] it was 4.55 µM (inactive); in [14], 1.61 µM (inactive); in [16], 2.46 µM (inactive). The GI50 in assay [19] is 4.69 µM (inactive).
For the compound `N#CC[C@@H](O)COc1ccccc1`, the GI50 in [20], in assay [1], in [2], in assay [3], in assay [4] and in assay [5] was > 100 µM (inactive) in each case. Moreover, the GI50 in [6], in assay [7], in assay [9], in assay [10], in assay [11] and in assay [12] was > 100 µM (inactive) throughout. For the same compound, the GI50 in [13], in [14], in assay [15], in assay [16], in assay [17] and in assay [18] was > 100 µM (inactive) throughout. For the same compound, in [19], the GI50 is > 100 µM (inactive).
As for `COc1cc(OC)cc(Oc2nc3ccc(C(F)(F)F)cc3nc2-c2ccccc2)c1`, the GI50 in assay [1], in assay [2], in assay [3], in assay [4], in assay [5] and in assay [6] was > 100 µM (inactive) each time. In addition, the GI50 in [7] is > 100 µM (inactive); in assay [8] it was > 100 µM (inactive); in assay [9] it was > 100 µM (inactive); in [10], > 100 µM (inactive); in assay [11], 60 µM (inactive); in assay [12], > 100 µM (inactive). Also, the GI50 in assay [13], in assay [14], in assay [15], in [16], in assay [17] and in [18] was > 100 µM (inactive) throughout. For the same compound, in assay [19], the GI50 was > 100 µM (inactive).
